Measurements as given in patent US6699851B2, “Cytotoxic compounds and their use” (Ardenia Investments, Ltd., priority 2000, dated 2004).
Values joined by “and” are separate entries in the source; they are usually repeats but may differ in a detail not shown here. Equal entries are not always repeated.

Experiments:
[1] = tested on: HeLa cell line of human cervical carcinoma; assay: Assay of cytotoxicity: HeLa cell growth inhibition (viable cell count, trypan blue exclusion); format: cell-based; details: compound alone; for number of living cells: three days of cultivation
Method: The assay of cytotoxicity of the inventive preparations was carried out on the well-known human cervical carcinoma cell line HeLa. HeLa cells were cultivated in full cultivation medium, containing 80% of Eagle Minimal Essential Medium with glutamine (Sigma), 20% of normal bovine serum, penicillin 100 IE/ml and streptomycin 100 μg/ml. HeLa cell at concentration of 10^5 cells/ml were seed in 24-well plates for adhesive cell lines (Sarstedt) in volume of 2 ml per well. HeLa cells were cultivated in CO2-incubator at temperature 37° C. in humidified atmosphere, consisting of 95% air and 5% CO2. On the next day, the experimental cultures were supplemented with solutions of the inventive preparations in normal bovine serum (NBS) in a volume of 20 μl, in order to obtain the necessary concentration for studying these in cultures. Control cultures were supplemented with normal bovine serum. After that HeLa cells were cultivated two days again at the same conditions. On the third day, HeLa cells from each cultures were harvested separately using versen. The number of viable cells was counted using tryphan blue exclusion test and a hemocytometer.
For evaluation of the cytotoxic action of these assayed preparations on HeLa cells the means value and standard errors of means of viable cell numbers were calculated. The cell growth inhibition (%) was calculated as: [formula]
The extent of cell growth inhibition caused by the assayed preparations was used for evaluation of their cytotoxicity.

[2] = tested on: Ehrlich ascites carcinoma (EAC); assay: Effect of pretreatment with compositions on antitumour action of DXR in mice with EAC; format: in vivo; details: DXR alone (positive control) 3.5 mg/kg i.v. day 1, 3, 5, 7, day 8
Method: Randombred albino mice of the ICR line, female, from own rearing were used in the study. The room for animal housing is provided with filtered air at 15 changes per hour, temperature of 19-21° C., relative humidity of 50-60% and regulated light day of 12 hours with change of light and darkness at 6 h a.m. and 6 h p.m. The mice were kept in transparent polycarbonate cages with floor area of 600 cm^2 containing softwood sawdust bedding. The animals had free access to bottles with domestic quality drinking tap water and to standard feeding for growing animals ad libidum. The mice age 2-2.5 months, weighing 20-23 g were randomly distributed to the control and test groups, standardised by mean weights. The control and test groups included 15 and 12 animals respectively. Specific earmarks identified the mice from each group. […]
The mice were killed by cervical dislocation one day later after the final treatment with the test substances on day 8. Ascites fluids were removed, collected, their volumes were recorded, and abdominal cavities were washed by saline 6-7 times and both fluids were pooled. Volumes of tumour cell pellet after centrifugation at 1000 r.p.m. for 10 min were also recorded. Number of viable tumour cells was counted by haemocytometer. Means and standard errors for each of animal groups were calculated. […] Influence of the composition on EAC growth inhibition was evaluated by: [formula] […]

[3] = first series of concentrations (5.00-6.59×10^−10 mol/l final)
[4] = second series of concentrations (10.00-13.17×10^−10 mol/l final)

Structure (SMILES) | cell growth inhibition [1, 3] [%] | number of living cells [1, 3] | cell growth inhibition [1, 4] [%] | number of living cells [1, 4] | EAC growth inhibition [2] | number of tumour cells (EAC cells in abdominal cavity) [2]
CC1=C(/C=C/C(C)=C/C=C/C(C)=C/C(=O)N[C@@H](Cc2ccc(OP(=O)(O)O)cc2)C(=O)O)C(C)(C)CCC1 (stereo in doubt) [C11, N-(all-trans-retinoyl)-O-phospho-L-tyrosine] | 17.1 | 376.7±24.52 ×10^3 | 5.2 | 430.8±16.37 ×10^3 |  | 
CCC=CCC=CCC=CCC=CCC=CCC=CCCC(=O)NCCOP(=O)(O)O [C6, N-docosahexaenoyl-O-phospho-2-aminoethanol] | 6.6 | 424.2±18.41 ×10^3 | 7.4 | 420.8±27.79 ×10^3 |  | 
COc1cccc2c1C(=O)c1c(O)c3c(c(O)c1C2=O)C[C@@](O)(C(=O)CO)C[C@@H]3O[C@H]1C[C@H](N)[C@H](O)[C@H](C)O1 [DXR, Doxorubicin] |  |  |  |  | 42.8% and 45.1% and 47.3% and 39.4% and 44.5% | 525.2±74.5 ×10^6 and 436.3±51.8 ×10^6 and 614.4±60.2 ×10^6 and 542.6±50.1 ×10^6 and 534.8±39.3 ×10^6
